Here are results for 27 molecules from patent US10344025B2, “GLS1 inhibitors for treating disease” (Board of Regents, The University of Texas System, priority 2014, dated 2019).

As usually defined, the IC50 is the midpoint of a concentration-inhibition curve. By EC50 is commonly meant the concentration giving half of the maximal effect. Read a high EC50 as weaker potency.

Bounds are passed on as bounds.

For assay [1], the target named is purified recombinant human GAC (GLS1) (Homo sapiens (Human), UniProt O94925). The assay is described as follows: GLS1 Enzymatic Activity Assay (dual-coupled enzymatic assay, resorufin/Amplex UltraRed readout).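 Note: glutamate from GAC coupled via glutamate oxidase and peroxidase to resorufin, read as fluorescence (ex 530, em 590 nm) kinetically or at 20 min, four-parameter logistic IC50 fit.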 Type of assay: biochemical.
The test system of a further assay is A549 cells. Kind of assay: Proliferation Assay (A549 viability, Cell Titer Fluor, 72 hours). As to conditions: Homo sapiens, A549, 72 h. Type of assay: cell-based. The gist of the method:
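Cell Titer Fluor fluorescence after 72 h compound treatment (0.5% DMSO, 37 °C, 5% CO2) of A549 cells plated 24 h earlier at 1000/well. Four-parameter logistic fitting gave IC50.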

Sequence of purified recombinant human GAC (GLS1) (O94925 other isoform, or with tags, fused parts or gaps): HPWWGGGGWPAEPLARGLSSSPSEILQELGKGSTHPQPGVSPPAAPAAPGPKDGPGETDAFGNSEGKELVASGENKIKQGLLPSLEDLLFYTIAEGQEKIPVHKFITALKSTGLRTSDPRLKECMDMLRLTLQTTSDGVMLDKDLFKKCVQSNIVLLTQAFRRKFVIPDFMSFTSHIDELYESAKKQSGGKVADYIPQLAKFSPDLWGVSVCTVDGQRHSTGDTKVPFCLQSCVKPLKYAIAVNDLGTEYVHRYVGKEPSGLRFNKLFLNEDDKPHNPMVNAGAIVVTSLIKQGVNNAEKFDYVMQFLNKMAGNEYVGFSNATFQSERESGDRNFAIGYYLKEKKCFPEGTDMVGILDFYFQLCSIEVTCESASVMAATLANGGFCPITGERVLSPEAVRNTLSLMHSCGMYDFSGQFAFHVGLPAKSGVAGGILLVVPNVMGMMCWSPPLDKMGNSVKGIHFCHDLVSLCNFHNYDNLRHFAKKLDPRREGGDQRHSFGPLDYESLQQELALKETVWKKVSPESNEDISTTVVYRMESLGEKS

For `Cc1ccc(CNC(=O)c2nnc(CCCCn3cc(C(=O)NCc4cccc(OC(F)(F)F)c4)nn3)s2)cn1` [Example 60, N-[(6-methylpyridin-3-yl)methyl]-5-{4-[4-({[3-(trifluoromethoxy)phenyl]methyl}carbamoyl)-1H-1,2,3-triazol-1-yl]butyl}-1,3,4-thiadiazole-2-carboxamide], the 50% inhibitory concentration (IC50) in assay [1] was under 0.1 µM. In the assay on A549 cells, the EC50 was under 0.1 µM.

On to `Cc1ccc(CNC(=O)c2cn(CCCCc3nnc(C(=O)NCc4cccc(OC(F)(F)F)c4)s3)nn2)cn1` [Example 61], for which the IC50 in assay [1] was under 0.1 µM. Besides, the concentration giving a half-maximal response (EC50) in the assay on A549 cells is under 0.1 µM.

For `Cc1ccc(CNC(=O)c2cn(CCCCc3nnc(C(=O)NCc4ccccn4)s3)nn2)cn1` [Example 62, 5-[4-(4-{[(6-methylpyridin-3-yl)methyl]carbamoyl}-1H-1,2,3-triazol-1-yl)butyl]-N-(pyridin-2-ylmethyl)-1,3,4-thiadiazole-2-carboxamide], the IC50 in assay [1] lay in the range of 0.1 to 0.5 µM. Besides, in the assay on A549 cells, the EC50 is 0.5 to 5 µM.

Regarding `Cc1ccc(CNC(=O)c2cn(CCCCc3nnc(C(=O)NCC4CC4)s3)nn2)cn1` [Example 63, N-(cyclopropylmethyl)-5-[4-(4-{[(6-methylpyridin-3-yl)methyl]carbamoyl}-1H-1,2,3-triazol-1-yl)butyl]-1,3,4-thiadiazole-2-carboxamide], the IC50 in assay [1] fell in the range of 0.1 to 0.5 µM. This molecule had an EC50 in the assay on A549 cells of 0.5 to 5 µM.

On to `Cc1ccc(CNC(=O)c2cn(CCCCc3nnc(C(=O)NCc4ccc(C)nc4)s3)nn2)cn1` [Example 64, N-[(6-methylpyridin-3-yl)methyl]-5-[4-(4-{[(6-methylpyridin-3-yl)methyl]carbamoyl}-1H-1,2,3-triazol-1-yl)butyl]-1,3,4-thiadiazole-2-carboxamide], for which, in assay [1], the IC50 is under 0.1 µM. Also, in the assay with A549 cells, the concentration giving a half-maximal response (EC50) fell in the range of 0.5 to 5 µM.

In the case of `O=C(NCc1ccccn1)c1cn(CCCCc2nnc(C(=O)NCc3cccc(OC(F)(F)F)c3)s2)nn1` [Example 65, 5-(4-{4-[(pyridin-2-ylmethyl)carbamoyl]-1H-1,2,3-triazol-1-yl}butyl)-N-{[3-(trifluoromethoxy)phenyl]methyl}-1,3,4-thiadiazole-2-carboxamide], the IC50 in assay [1] is under 0.1 µM. This molecule also returned an EC50 in the assay with A549 cells of 0.1 to 0.5 µM.

In the case of `Cc1ccc(CNC(=O)c2cn(CCCCn3cc(C(=O)NCc4cccc(OC(F)(F)F)c4)nn3)nn2)cn1` [Example 72, 1-[4-(4-{[(6-methylpyridin-3-yl)methyl]carbamoyl}-1H-1,2,3-triazol-1-yl)butyl]-N-{[3-(trifluoromethoxy)phenyl]methyl}-1H-1,2,3-triazole-4-carboxamide], in assay [1], the half-maximal inhibitory concentration (IC50) is under 0.1 µM. In addition, the concentration for a half-maximal effect (EC50) in the assay with A549 cells was under 0.1 µM.

Regarding `CC(C)(C)OC(=O)N1CC(CNC(=O)c2nnc(CCCCn3cc(C(=O)NCc4cccc(OC(F)(F)F)c4)nn3)s2)C1` [Example 73, tert-butyl 3-{[(5-{4-[4-({[3-(trifluoromethoxy)phenyl]methyl}carbamoyl)-1H-1,2,3-triazol-1-yl]butyl}-1,3,4-thiadiazol-2-yl)formamido]methyl}azetidine-1-carboxylate], the IC50 in assay [1] was under 0.1 µM. Moreover, the EC50 with A549 cells is under 0.1 µM.

For the molecule `O=C(NCc1cccc(OC(F)(F)F)c1)c1cn(CCCCc2nnc(C(=O)NCc3cc(C(F)(F)F)ccn3)s2)nn1` [Example 75, 5-{4-[4-({[3-(trifluoromethoxy)phenyl]methyl}carbamoyl)-1H-1,2,3-triazol-1-yl]butyl}-N-{[4-(trifluoromethyl)pyridin-2-yl]methyl}-1,3,4-thiadiazole-2-carboxamide], the IC50 in assay [1] is under 0.1 µM. The molecule also displayed an EC50 in the assay with A549 cells of under 0.1 µM.

Regarding `O=C(NCc1cccc(OC(F)(F)F)c1)c1cn(CCCCc2nnc(C(=O)NCc3cncc(C(F)(F)F)c3)s2)nn1` [Example 76, 5-{4-[4-({[3-(trifluoromethoxy)phenyl]methyl}carbamoyl)-1H-1,2,3-triazol-1-yl]butyl}-N-{[5-(trifluoromethyl)pyridin-3-yl]methyl}-1,3,4-thiadiazole-2-carboxamide], the IC50 in assay [1] was under 0.1 µM. Moreover, in the assay on A549 cells, the EC50 was under 0.1 µM.

As to `O=C(NCc1cccc(OC(F)(F)F)c1)c1cn(CCCCc2nnc(C(=O)NCc3ccc(C(F)(F)F)cn3)s2)nn1` [Example 77, 5-{4-[4-({[3-(trifluoromethoxy)phenyl]methyl}carbamoyl)-1H-1,2,3-triazol-1-yl]butyl}-N-{[5-(trifluoromethyl)pyridin-2-yl]methyl}-1,3,4-thiadiazole-2-carboxamide], in assay [1], the IC50 is under 0.1 µM. The molecule further returned a half-maximal effective concentration (EC50) with A549 cells of under 0.1 µM.

Regarding `O=C(NCc1cccc(OC(F)(F)F)c1)c1cn(CCCCc2nnc(C(=O)NCc3ccc(C(F)(F)F)nc3)s2)nn1` [Example 78, 5-{4-[4-({[3-(trifluoromethoxy)phenyl]methyl}carbamoyl)-1H-1,2,3-triazol-1-yl]butyl}-N-{[6-(trifluoromethyl)pyridin-3-yl]methyl}-1,3,4-thiadiazole-2-carboxamide], the IC50 in assay [1] is under 0.1 µM. Besides, the EC50 with A549 cells is under 0.1 µM.

For the molecule `CC(C)(C)OC(=O)N1CC(CNC(=O)c2cn(CCCCn3cc(C(=O)NCc4cccc(OC(F)(F)F)c4)nn3)nn2)C1` [Example 79, tert-butyl 3-{[(1-{4-[4-({[3-(trifluoromethoxy)phenyl]methyl}carbamoyl)-1H-1,2,3-triazol-1-yl]butyl}-1H-1,2,3-triazol-4-yl)formamido]methyl}azetidine-1-carboxylate], the IC50 in assay [1] was under 0.1 µM. In addition, the concentration giving a half-maximal response (EC50) in the assay on A549 cells is under 0.1 µM.

With `O=C(NCc1cccc(OC(F)(F)F)c1)c1cn(CCCCn2cc(C(=O)NCc3cncc(C(F)(F)F)c3)nn2)nn1` [Example 80, N-(3-(trifluoromethoxy)benzyl)-1-(4-(4-(((5-(trifluoromethyl)pyridin-3-yl)methyl)carbamoyl)-1H-1,2,3-triazol-1-yl)butyl)-1H-1,2,3-triazole-4-carboxamide], the 50% inhibitory concentration (IC50) in assay [1] was under 0.1 µM. This molecule also registered an EC50 with A549 cells of under 0.1 µM.

For `O=C(NCc1ccc(C(F)(F)F)nc1)c1cn(CCCCn2cc(C(=O)NCc3cccc(OC(F)(F)F)c3)nn2)nn1` [Example 82, 1-{4-[4-({[3-(trifluoromethoxy)phenyl]methyl}carbamoyl)-1H-1,2,3-triazol-1-yl]butyl}-N-{[6-(trifluoromethyl)pyridin-3-yl]methyl}-1H-1,2,3-triazole-4-carboxamide], the half-maximal inhibitory concentration (IC50) in assay [1] was under 0.1 µM. Moreover, the concentration giving a half-maximal response (EC50) with A549 cells is under 0.1 µM.

On to `O=C(NCc1cccc(OC(F)(F)F)c1)c1cn(CCCCn2cc(C(=O)NCc3cc(C(F)(F)F)ccn3)nn2)nn1` [Example 83, N-{[3-(trifluoromethoxy)phenyl]methyl}-1-{4-[4-({[4-(trifluoromethyl)pyridin-2-yl]methyl}carbamoyl)-1H-1,2,3-triazol-1-yl]butyl}-1H-1,2,3-triazole-4-carboxamide], for which, in assay [1], the IC50 is under 0.1 µM. The EC50 in the assay with A549 cells is under 0.1 µM.

Consider `O=C(NCc1cncc(C(F)(F)F)c1)c1cn(CCCCn2cc(C(=O)NCC3CCCC3)nn2)nn1` [Example 84], for which the half-inhibitory concentration (IC50) in assay [1] was 0.1 to 0.5 µM. This molecule showed a half-maximal effective concentration (EC50) with A549 cells of 0.1 to 0.5 µM.

As for `O=C(NCc1cc(C(F)(F)F)ccn1)c1cn(CCCCn2cc(C(=O)NCC3CCC3)nn2)nn1` [Example 85, 1-(4-{4-[(cyclobutylmethyl)carbamoyl]-1H-1,2,3-triazol-1-yl}butyl)-N-{[4-(trifluoromethyl)pyridin-2-yl]methyl}-1H-1,2,3-triazole-4-carboxamide], the IC50 in assay [1] was in the range of 0.5 to 5 µM. The molecule also yielded an EC50 in the assay on A549 cells of 0.5 to 5 µM.

Consider `O=C(NCc1cc(C(F)(F)F)ccn1)c1cn(CCCCn2cc(C(=O)NCC3CCOC3)nn2)nn1` (stereo not drawn) [Example 86], for which the IC50 in assay [1] lay in the range of 0.5 to 5 µM. The molecule further had an EC50 with A549 cells of over 5 µM.

Consider `O=C(NCc1cc(C(F)(F)F)ccn1)c1cn(CCCCn2cc(C(=O)NCC3COC3)nn2)nn1` [Example 87], for which the concentration for half-maximal inhibition (IC50) in assay [1] lay within 0.5 to 5 µM. This molecule also returned an EC50 in the assay on A549 cells of over 5 µM.

Consider `CNC(=O)c1cn(CCCCn2cc(C(=O)NCc3cc(C(F)(F)F)ccn3)nn2)nn1` [Example 88, 1-{4-[4-(methylcarbamoyl)-1H-1,2,3-triazol-1-yl]butyl}-N-{[4-(trifluoromethyl)pyridin-2-yl]methyl}-1H-1,2,3-triazole-4-carboxamide], for which, in assay [1], the IC50 was 0.5 to 5 µM. This molecule had an EC50 in the assay with A549 cells of 0.5 to 5 µM.

Turning to `O=C(NCc1cc(C(F)(F)F)ccn1)c1cn(CCCCn2cc(C(=O)NCC3CC3)nn2)nn1` [Example 89], in assay [1], the half-maximal inhibitory concentration (IC50) fell in the range of 0.5 to 5 µM. Also, in the assay on A549 cells, the EC50 is 0.5 to 5 µM.

For the molecule `O=C(NCc1cc(C(F)(F)F)ccn1)c1cn(CCCCn2cc(C(=O)NCC3CCCCC3)nn2)nn1` [Example 90], the IC50 in assay [1] was in the range of 0.1 to 0.5 µM. In addition, the EC50 in the assay on A549 cells was in the range of 0.1 to 0.5 µM.

Consider `O=C(NCc1cncc(C(F)(F)F)c1)c1cn(CCCCn2cc(C(=O)NCC3COC3)nn2)nn1` [Example 91, N-(oxetan-3-ylmethyl)-1-{4-[4-({[5-(trifluoromethyl)pyridin-3-yl]methyl}carbamoyl)-1H-1,2,3-triazol-1-yl]butyl}-1H-1,2,3-triazole-4-carboxamide], for which, in assay [1], the IC50 was 0.5 to 5 µM. The molecule further returned a 50% effective concentration (EC50) with A549 cells of over 5 µM.

Turning to `O=C(NCc1cncc(C(F)(F)F)c1)c1cn(CCCCn2cc(C(=O)NCC3CCCO3)nn2)nn1` (stereo not drawn) [Example 92, N-(oxolan-2-ylmethyl)-1-{4-[4-({[5-(trifluoromethyl)pyridin-3-yl]methyl}carbamoyl)-1H-1,2,3-triazol-1-yl]butyl}-1H-1,2,3-triazole-4-carboxamide], the 50% inhibitory concentration (IC50) in assay [1] is 0.5 to 5 µM. Moreover, in the assay with A549 cells, the concentration giving a half-maximal response (EC50) lay in the range of 0.5 to 5 µM.

In the case of `O=C(NCc1cncc(C(F)(F)F)c1)c1cn(CCCCn2cc(C(=O)NCC3CCC3)nn2)nn1` [Example 93, N-(cyclobutylmethyl)-1-{4-[4-({[5-(trifluoromethyl)pyridin-3-yl]methyl}carbamoyl)-1H-1,2,3-triazol-1-yl]butyl}-1H-1,2,3-triazole-4-carboxamide], in assay [1], the 50% inhibitory concentration (IC50) was in the range of 0.1 to 0.5 µM. Besides, in the assay on A549 cells, the EC50 was in the range of 0.5 to 5 µM.

For the molecule `O=C(NCc1cccc(OC(F)(F)F)c1)c1cn(CCCCn2cc(C(=O)NCC3CCOCC3)nn2)nn1` [Example 94, N-(oxan-4-ylmethyl)-1-{4-[4-({[3-(trifluoromethoxy)phenyl]methyl}carbamoyl)-1H-1,2,3-triazol-1-yl]butyl}-1H-1,2,3-triazole-4-carboxamide], the IC50 in assay [1] lay within 0.1 to 0.5 µM. This molecule also had an EC50 in the assay with A549 cells of 0.1 to 0.5 µM.
